In patent US12582638B2, “Pharmaceutical composition for treating cancer, containing mTOR-signaling inhibitor as active ingredient” (KOREA ADVANCED INSTITUTE OF SCIENCE AND TECHNOLOGY, priority 2020, dated 2026):

Tests used:
Assay in all cases: Cell viability, CellTiterGlo, 72 hours
Type in all cases: cell-based
[1] = test system: A172; details: Homo sapiens, A 172, A172 cells, Brain
In short: (§1)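 Lomitapide, various concentrations; 37° C, 5% or 10% CO2. RT equilibration 1 h, CellTiterGlo added, luminescence after 1 h → % viability.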

[2] = test system: A2780; details: Homo sapiens, A2780 cells, Ovary
In short: as §1

[3] = test system: A549; details: Homo sapiens, A549 cells, Lung
In short: as §1

[4] = test system: AsPC-1; details: Homo sapiens, ASPC1, AsPC-1 cells, Pancreas
In short: as §1

[5] = test system: BEN; details: BEN cells, Lung
In short: as §1

[6] = test system: BxPC-3; details: Homo sapiens, BxPC-3 cells, Pancreas
In short: as §1

[7] = test system: Caki-1; details: Homo sapiens, Caki-1 cells, Kidney
In short: as §1

[8] = test system: EFM-192A; details: EFM-192A cells, Breast
In short: as §1

[9] = test system: EFM-19; details: Homo sapiens, EFM-19 cells, Breast
In short: as §1

[10] = test system: EFO-27; details: Homo sapiens, EFO-27 cells, Ovary
In short: as §1

[11] = test system: HCT-15; details: Homo sapiens, HCT-15 cells, Colon
In short: as §1

[12] = test system: HEC-1-A; details: Homo sapiens, HEC-1-A cells, Endometrium
In short: as §1

[13] = test system: HEC-1-B; details: Homo sapiens, HEC-1-B cells, Endometrium
In short: as §1

[14] = test system: HL-60; details: Homo sapiens, HL-60 cells, Blood
In short: as §1

[15] = test system: HT-29; details: Homo sapiens, HT-29 cells, Colon
In short: as §1

[16] = test system: Hep3B2.1-7; details: Hep3B2.1-7 cells, Liver
In short: as §1

[17] = test system: Hutu 80; details: Homo sapiens, HuTu80, Hutu 80 cells, Duodenum
In short: as §1

[18] = test system: Ishikawa; details: Homo sapiens, Ishikawa cells, Endometrium
In short: as §1

[19] = test system: J82; details: Homo sapiens, J82 cells, Bladder
In short: as §1

[20] = test system: Jurkat; details: Homo sapiens, Jurkat cells, Blood
In short: as §1

[21] = test system: K562; details: Homo sapiens, K562 cells, Blood
In short: as §1

[22] = test system: LOVO; details: Homo sapiens, LOVO cells, Colon
In short: as §1

[23] = test system: LP-1; details: Homo sapiens, LP-1 cells, Blood
In short: as §1

[24] = test system: LnCap; details: Homo sapiens, LnCap cells, Prostate
In short: as §1

[25] = test system: MEC-1; details: Homo sapiens, MEC1, MEC-1 cells, Blood
In short: as §1

[26] = test system: MKN-45; details: Homo sapiens, MKN-45 cells, Stomach
In short: as §1

[27] = test system: Mia PaCA 2; details: Homo sapiens, Mia PaCA 2 cells, Pancreas
In short: as §1

[28] = test system: NCI-H441; details: Homo sapiens, NCI-H441 cells, Lung
In short: as §1

[29] = test system: NCI-N87; details: Homo sapiens, NCI-N87 cells, Stomach
In short: as §1

[30] = test system: OCI-AML5; details: Homo sapiens, OCI-AML-5, OCI-AML5 cells, Blood
In short: as §1

[31] = test system: OPM-2; details: Homo sapiens, OPM-2 cells, Blood
In short: as §1

[32] = test system: RERF-LC-Ad2; details: RERF-LC-Ad2 cells, Lung
In short: as §1

[33] = test system: RERF-LC-MS; details: RERF-LC-MS cells, Lung
In short: as §1

[34] = test system: RKO; details: Homo sapiens, RKO cells, Colon
In short: as §1

[35] = test system: RL95-2; details: Homo sapiens, RL95-2 cells, Endometrium
In short: as §1

[36] = test system: SJSA-1; details: Homo sapiens, SJSA-1 cells, Bone
In short: as §1

[37] = test system: SNU-1; details: Homo sapiens, SNU1, SNU-1 cells, Stomach
In short: as §1

[38] = test system: SNU-216; details: SNU-216 cells, Stomach
In short: as §1

[39] = test system: SW948; details: Homo sapiens, SW948 cells, Colon
In short: as §1

SMILES: O=C(NC1CCN(CCCCC2(C(=O)NCC(F)(F)F)c3ccccc3-c3ccccc32)CC1)c1ccccc1-c1ccc(C(F)(F)F)cc1 [lomitapide, N-(2,2,2-trifluoroethyl)-9-[4-[4-[[[4′-(trifluoromethyl)[1,1′-biphenyl]2-yl]carbonyl]amino]-1-piperidinyl]butyl]-9H-fluoren-9-carboxamide]
- IC50 [1]: 1.9 µM
- IC50 [2]: 2.7 µM
- IC50 [3]: 3.6 µM
- IC50 [4]: 3.6 µM
- IC50 [5]: 4.2 µM
- IC50 [6]: 5.7 µM
- IC50 [7]: 3.6 µM
- IC50 [8]: 4 µM
- IC50 [9]: 3.6 µM
- IC50 [10]: 4 µM
- IC50 [11]: 3.5 µM
- IC50 [12]: 4.9 µM
- IC50 [13]: 6.9 µM
- IC50 [14]: 3.3 µM
- IC50 [15]: 1.6 µM
- IC50 [16]: 2.7 µM
- IC50 [17]: 3 µM
- IC50 [18]: 3.6 µM
- IC50 [19]: 3.6 µM
- IC50 [20]: 3 µM
- IC50 [21]: 2.1 µM
- IC50 [22]: 3.4 µM
- IC50 [23]: 5.4 µM
- IC50 [24]: 3.5 µM
- IC50 [25]: 3.3 µM
- IC50 [26]: 3.9 µM
- IC50 [27]: 2.9 µM
- IC50 [28]: 3.2 µM
- IC50 [29]: 3.3 µM
- IC50 [30]: 2.7 µM
- IC50 [31]: 4.4 µM
- IC50 [32]: 2.6 µM
- IC50 [33]: 3.2 µM
- IC50 [34]: 3.3 µM
- IC50 [35]: 3.2 µM
- IC50 [36]: 3.1 µM
- IC50 [37]: 2.8 µM
- IC50 [38]: 3.1 µM
- IC50 [39]: 4.5 µM
